From patent publication US8603965B2, “Pharmaceutical composition for the prophylaxis and treatment of HIV infection and its use” (priority 2006, dated 2013)
Values joined by “and” are separate entries in the source; they are usually repeats but may differ in a detail not shown here. Identical values can stand only once. “Also recorded” adds a separate entry of the source. Like-named read-outs stand apart in the source and are kept apart here. Ends that are not written are not given here.

Columns and labels:
HIV [1] = experiment: Multidose subcutaneous injection once daily for 14 days in HIV positive patients (Example 4); type: in vivo, human; details: 1-30 mg once daily
Method: Twenty-one subjects were divided into 5 groups, received pharmaceutical composition containing 1 mg, 5 mg, 10 mg, 20 mg, 30 mg FS-01 once daily, for 14 days. Determined the viral load before injection and after injection.

[2] = Pharmacokinetic study of single subcutaneous injection of pharmaceutical composition containing FS-01 in healthy volunteers; type: in vivo, human
Method: 3-period crossover Latin square design was employed, 12 subjects were randomly divided into three groups, four subjects per group, and were sequentially abdomenal and subcutaneously injected by pharmaceutical composition containing 10, 20, 30 mg of FS-01, doses are listed in Table 2. Blood samples were collected at 30-5 min pre-dose, 5, 15, 30 min, 1, 2, 4, 6, 8, 12, 24, 48 and 72 h after injection. The concentration of FS-01 in blood sample was quantitatively analyzed by LC\MS\MS.

HIV [3] = experiment: Multidose subcutaneous injection once daily for 28 days in HIV positive patients (Example 5); type: in vivo, human; details: 10 mg and 20 mg once daily
Method: (§1) Nineteen HIV patients were divided into two groups, were subcutaneously injected with pharmaceutical composition containing 10 mg and 20 mg of FS-01 once daily, for 28 days. The data was analyzed together with that in Example 4.

[4] = Half-life of FS-01 in HIV patient; details: human, in vivo, subcutaneous, 20 mg
Method: as §1
It has been shown in the result that the pharmaceutical composition of the present invention has good safety profile. […] Plasma viral load in HIV infected patient with baseline less than <10,000 c/ml decreased by 1.2 log in 20 mg group 14 days after administration (see FIG. 3). And it is recommended for infected patient with baseline viral load more than 10,000 c/ml to receive combination treatment with other antiviral agents, such as antiretroviral inhibitors or protease inhibitors.

[5] = Pharmacokinetic study of single subcutaneous or intravenous injection of FS-01 in rhesus monkey; type: in vivo; details: 1.2 mg/kg
Method: Detailed experiment method as follows: three rhesus monkeys, crossover design, with a washout period of more than two weeks. Rhesus monkey was administrated 1.2 mg/kg of FS-01 by subcutaneously or intravenously injection, 1 ml of blood sample were collected at different point of time (0, 1, 5, 15, 30 min, 1, 2, 4, 6, 8, 12, 24 and 48 h). Drug concentration at different time point in blood sample was quantitatively analyzed by LC\MS\MS, utilizing iodine labeled FS-01 as internal standard, C18 column, aqueous solution containing 0.1% TFA and acetonitrile as mobile phase. Pharmacokinetics analysis was carried out according to fitting model based on the concentration of FS-01, determined the half-life (T1/2) in plasma, bioavailability and other pharmacokinetics parameters (FIG. 1).

HIV [6] = details: HIV fusion assay; cited from earlier work
[7] = healthy volunteers, 10, 20, 30 mg
[8] = plasma, 24 h, read-out: C24 (plasma concentration at 24 h)

Row | Substance | side effects (HIV [1]) | clearance rate as dose increases [2, 7] | pharmacokinetic process (linearity) [2, 7] | plasma drug concentration after 72 hours ([2]; healthy volunteers, 72 hours after dosing) | Cmax ([2]; human, plasma, sc, 10 mg, healthy volunteers, 10 mg (low dose), single subcutaneous injection) | Cmax ([2]; human, plasma, sc, 20 mg, healthy volunteers, 20 mg (middle dose), single subcutaneous injection) | Cmax ([2]; human, plasma, sc, 30 mg, healthy volunteers, 30 mg (high dose), single subcutaneous injection) | half-life ([2]; human, plasma, sc, healthy volunteers, single subcutaneous injection) | side effects / safety profile (HIV [3]) | half-life [4] | Tmax [5] | Cmax ([5]; plasma) | level at 24 h [5, 8] | level at time molar at 24 h [5, 8] | Tmax ([5]; plasma, read-out: Tmax) | half-life ([5]; plasma, subcutaneous or intravenous injection) | bioavailability ([5]; plasma, subcutaneous or intravenous injection, read-out: bioavailability (BA)) | EC50 relative to T-20 (HIV [6])
1 | Ac-SWETWEREIENYTRQIYRILEESQEQQDRNERDLLE-NH2 [FS-01] | No signs of substantial side effects | did not slow down; also recorded: did not decrease | linear pattern; also recorded: linear relation | approaching baseline; also recorded: approached to baseline | 104 ng/mL and 22 nM | 213 ng/mL and 45.1 nM | 250 ng/mL and 52.9 nM | 20 ± 18.6 h | No signs of substantial side effects | 39 h | 0.25 h-2 h | 508 ng/mL and 108 nM | > 9.8 ng/mL | > 2.07 nM | 0.25 to 2 h | 8.13 ± 3.1 h | 50% | –
2 | X-SWETWEREIENYTKQIYKILEESQEQQDRNEKDLLE-Z (not fully specified (N-terminus, C-terminus); printed as X-SWETWEREIENYTKQIYKILEESQEQQDRNEKDLLE-Z) | – | – | – | – | – | – | – | – | – | – | – | – | – | – | – | – | – | 20 times lower than T-20
